Laboratory results as given in US20240374563A1, “ANTICHOLINERGIC COMPOUNDS FOR USE IN TREATING NEUROMUSCULAR DISORDERS” (UNIVERSITY OF MONTRÉAL, priority 2022, published 2024).

Assays:
SOD1^G37R mice [1] = assay: Motor neuron counts in lumbar spinal cord sections (ChAT/NeuN); type: in vivo, mouse; conditions: P520, treatment from disease onset, p<0.0001
Excerpt: We prepared lumbar spinal cords sections as previously described[6] and labeled MNs with the cholinergic neuronal marker ChAT and the general neuronal nuclei marker NeuN to identify α-MNs. Neurons positive for both markers located in the ventral horn were counted as α-MNs.
Motor neuron counts: Mouse were perfused transcardially and lumbar spinal cord were subsequently dissected, cryoprotected in a 30% sucrose solution and frozen using dry ice. Floating lumbar spinal cord cryosections were processed as previously described. Spinal cords cryosections were double stained against Choline Acetyl-Transferase (ChAT: 1:100; Goat; Millipore, Canada; AB144P) and the neuronal marker Neuronal Nuclei (NeuN; 1:300; Mouse IgG1; Millipore; MAB377). ChAT and NeuN positive cells were identified as α-MNs[4]. A minimin of twenty lumbar spinal cord sections per animal were analysed and double-positive cells from each ventral horns were quantified.

SOD1^G37R mice [2] = assay: EDL muscle weight; type: in vivo, mouse
SOD1^G37R mice [3] = assay: Grip strength; type: in vivo, mouse; conditions: from P490 until the end of the trial; treatment from disease onset; N=19
Excerpt: Mice of the darifenacin and placebo groups began the trial with a similar grip strength force.
The pre-clinial trial design was made according to guidelines for preclinical animal research in ALS/MND [35]. Male mice from the SOD1^G37R background and their WT littermates were included in the preclinical study. Mice were randomly assigned to the experimental or the placebo group. Treatment, behavior monitoring, experiments and results analysis were done blindly. Standard ALS behavioral measurements were performed biweekly to measure disease progression in the various study groups. This includes rotarod test. grip strength measurements, weight measurements and tail suspension test to assess hindlimb extension reflex.

SOD1^G37R mice [4] = assay: EDL muscle fatigue protocol and 30 min recovery; type: in vivo, mouse
Experimental: In addition to the force generated, a muscle is also characterised by its resistance to fatigue. For instance, fast-twitch muscles composed of a majority of fast fatigable motor units like the EDL, is their great fatigability. In ALS, alteration at the type of innervation (from fast to slow twitch) and in the properties of muscles themselves alter the fatigue properties, rendering them more resistant. […] We used a fatigue stimulation protocol, followed by a 30 min recovery period (FIG. 6A). […] However, we found no difference in the rate of fatigue of muscle contractions generated by motor nerve stimulation (FIG. 6C; Dari N=8, Placebo N=8; p>0.05, Repeated two-way ANOVA). […] There was no difference in the rate of recovery following the fatigue protocol between the darifenacin-treated mice and the placebo-treated ones (FIG. 6B-C; Dari N=8, Placebo N=8; p>0.05, Repeated two-way ANOVA).
Finally, we investigated the fatigue properties of the EDL muscle following darifenacin pre-onset treatment. As mentioned earlier, fast-twitch muscles like the EDL are very strong but are normally highly fatigable. However, in ALS, a gradual resistance to fatigue of fast-twitch muscles have been unraveled, following progression of disease pathogenesis. We used a fatigue stimulation protocol (180 trains at 120 Hz-300 ms), followed by a 30 min recovery period (see FIG. 6A) to investigate treatment impact on EDL fatigue properties. […] The strong resistance of the muscle to fatigue probably reflected the high rate of denervation of the EDL muscle at the symptomatic stage in both darifenacin-and placebo-treated mice.
Muscle fatigue: The fatigue protocol is illustrated in FIG. 6A. The fatigue protocol was adapted to each muscle owing to the differences in their intrinsic properties. For the EDL, fatigue was tested using a bout of 180 nerve stimulations for a duration of 300 ms, elicited at a frequency of 120 Hz. The rest period between each stimulation was 700 ms, for a total protocol duration of 3 min. Muscular stimulations were super-imposed to nerve stimulations every 10 stimulations (18 simultaneous nerve-muscle stimulations), to evaluate muscular reserve. The fatigue protocol for the SOL consisted of a bout of 300 nerve stimulations for 500 ms at 50 Hz, with a rest period of 600 ms between stimulations, for a total duration of 5 min 30. Muscular stimulations were super-imposed to nerve stimulations every 10 stimulations (30 simultaneous nerve-muscle stimulations).
Each fatigue protocol was followed by a 30 min recovery period during which muscular and neuromuscular contractile force were measured at the following latencies (after the end of the fatigue protocol): 5 s, 10 s, 15 s, 30 s, 45 sec, 1 min, 1.5 min, 2 min, 2.5 min, 5 min, 10 min, 20 min and 30 min.

SOD1^G37R mice [5] = assay: NMJ innervation status and NMJ repair signs by immunohistochemistry; type: in vivo, mouse
Experimental: We characterized EDL innervation status, a vulnerable fast-twitch muscle in ALS [3, 25-27], by classifying NMJs into fully innervated, partially innervated and denervated NMJs (FIG. 2A).
Neuromuscular innervation: Immunostaining was performed on EDL and SOL muscle previously described. Briefly, NMJs were labeled to visualise the axon terminal, Schwann cells and the post-synaptic receptors. The presynaptic element was labeled using an anti-synaptic vesicular protein 2 (SV2, 1:2000, Developmental Studies Hybridoma Bank) and an anti-neurofilament M, (NF-M, 1:1000, Rockland Immunochemicals Inc). PSCs and Schwann cells were labeled with anti-S100β antibody (1:4, Z0311, Dako) and post-synaptic receptors with Alexa594-conjugated-α-BTX (1.33 μg/ml, Molecular Probes, Fischer Scientific, Canada).
Observations and image acquisition were obtained using a Zeiss LSM 880 confocal microscope, with a 63× oil immersion objective (N.A. 1.4) or an Olympus FV 1000, with either a 63× oil immersion objective or a 20× water immersion objective (respectively N.A. 0.95 and 0.90). No image manipulations were performed after acquisition, except for brightness and contrast adjustments for figure presentation.

SOD1^G37R mice [6] = assay: Survival cohort; conditions: continuous treatment from disease onset (P450) until end stage; N=10
[7] = pre-onset treatment P400 until P520
[8] = EDL, pre-onset treatment P400 until P480
[9] = EDL, treatment from disease onset (P450), 10 mg/kg orally, to P520
[10] = EDL, treatment from disease onset, 10 mg/kg orally

## NC(=O)C(c1ccccc1)(c1ccccc1)[C@@H]1CCN(CCc2ccc3c(c2)CCO3)C1 [darifenacin]
SOD1^G37R mice [1]
  α-MN count per ventral horn vs placebo: significantly higher
SOD1^G37R mice [2]; pre-onset treatment P400 until P520, N=4, n=7
  EDL muscle weight: 9.1 ± 0.55 mg
SOD1^G37R mice [2]; treatment from disease onset, N=8, n=16
  EDL muscle weight: 11.79 ± 0.34 mg
SOD1^G37R mice [3]
  grip strength vs placebo: performed better
SOD1^G37R mice [4]; [7]
  rate of fatigue generated by muscle stimulation vs placebo: no difference
  rate of recovery following the fatigue protocol vs placebo: comparable
SOD1^G37R mice [4]; treatment from disease onset
  rate of fatigue of contractions generated by motor nerve stimulation vs placebo: no difference
  rate of recovery following the fatigue protocol vs placebo: no difference
SOD1^G37R mice [4]; treatment from disease onset, p<0.01 vs placebo
  EDL fatigue on direct muscle stimulation: more typical for this type of fast twitch muscle
SOD1^G37R mice [5]; [8]
  animals in which glial process extensions were seen: 5 out of 6
  percentage of denervated NMJs: 15.7±5.9%
  percentage of partially innervated NMJs: 33.9±5.1%
SOD1^G37R mice [5]; EDL, pre-onset treatment P400 until P480, N=6, n=145
  percentage of fully innervated NMJs: 50.4±9.2%
SOD1^G37R mice [5]; EDL, treatment from disease onset (P450), 10 mg/kg orally 5 days a week, to P520, N=7, n=293
  percentage of denervated NMJs: 5.6±1.8%
SOD1^G37R mice [5]; [9]
  percentage of fully innervated NMJs: 70.1±4.2%
  percentage of partially innervated NMJs: 24.2±4.0%
SOD1^G37R mice [5]; [10]
  percentage of NMJs presenting nerve sprouting: 21.5±4.3%
  percentage of NMJs with glial processes alone: 2.2±1.8%
  percentage of NMJs with polyinnervation: 6.4±2.8
SOD1^G37R mice [5]; SOL and EDL, pre-onset treatment P400 until P480
  NMJ repair signs (nerve sprouting, polyinnervation, glial processes) vs placebo: no evidence of significant difference
SOD1^G37R mice [5]; SOL, pre-onset treatment P400 until P480
  percentage of partially innervated NMJs: 34.9±8.6%
SOD1^G37R mice [5]; SOL, pre-onset treatment P400 until P480, N=4, n=118
  percentage of fully innervated NMJs: 60.5±8.2%
SOD1^G37R mice [6]
  median lifespan: 551 days
